Values quoted from earlier work in patent publication US7074355B2, “Process for dry granulation by agitative balling for the preparation of chemically stable, dry-flow, low compact, dust free, soluble spherical granules of phosphoroamidothioate” (United Phosphorus Ltd., priority 2003, dated 2006).

Test system: insects
Details: systemic and contact insecticide of moderate persistence

With `COP(=O)(NC(C)=O)SC` (stereo not shown) [Acephate] as the molecule, how does the residual activity lasting read?
The residual activity lasting was 10 to 15 days.
